Data reported in ChEMBL document CHEMBL4665874, “The splicing modulator sulfonamide indisulam reduces AR-V7 in prostate cancer cells” (2020).
Activity calls are given as the source filed them. The rule behind the calls is not given here.

How the values were obtained:
Mus musculus [1] = assay: Reduction in AR-V7 level in tumor lysates of NSG mouse xenografted with human VCaP cells at 10 mg/kg, po co-administered with 25 mg/kg AR antagonist MDV via gavage with 5 days on and 2 days off dosing schedule for 6 weeks by immunoblot analysis; assay type: functional, organism-based; conditions: Neoplasm
Mus musculus [2] = assay: Reduction in AR-V7 level in tumor lysates of NSG mouse xenografted with human VCaP cells at 10 mg/kg, po administered via gavage with 5 days on and 2 days off dosing schedule for 6 weeks by immunoblot analysis; assay type: functional, organism-based; conditions: Neoplasm
Mus musculus [3] = assay: Reduction in total AR isoforms in tumor lysates of NSG mouse xenografted with human VCaP cells at 10 mg/kg, po administered via gavage with 5 days on and 2 days off dosing schedule for 6 weeks by immunoblot analysis; assay type: functional, organism-based; conditions: Neoplasm
VCaP [4] = assay: Antitumor activity against human VCaP cells xenografted in NSG mouse assessed as tumor volume at 10 mg/kg, po co-administered with 25 mg/kg AR antagonist MDV via gavage with 5 days on and 2 days off dosing schedule for 6 weeks and measured bi-weekly for 6 weeks (reference value: 698.9 +/-286.5 […]); assay type: functional
VCaP [5] = assay: Antitumor activity against human VCaP cells xenografted in NSG mouse assessed as tumor volume at 10 mg/kg, po administered via gavage with 5 days on and 2 days off dosing schedule for 6 weeks and measured bi-weekly for 6 weeks; assay type: functional
VCaP [6] = assay: Antiproliferative activity against human VCaP cells assessed as reduction in cell viability at 1 to 10 uM after 14 days in presence of AR antagonist MDV by Celltiter-Glo luminescence assay; assay type: functional, cell-based; conditions: dose microM 1-10, time 14.0 day
[7] = molecular target: T1, RNA-binding protein 39 (Homo sapiens) (UniProt Q14498); assay: Induction of RBM39 degradation in human VCaP cells assessed as AR splicing modulation by measuring reduction in AR-V7 splice variant mRNA transcript level incubated for 24 hrs in presence of AR antagonist MDV by RT-qPCR analysis; assay type: cell-based
T1 sequence (whole entry): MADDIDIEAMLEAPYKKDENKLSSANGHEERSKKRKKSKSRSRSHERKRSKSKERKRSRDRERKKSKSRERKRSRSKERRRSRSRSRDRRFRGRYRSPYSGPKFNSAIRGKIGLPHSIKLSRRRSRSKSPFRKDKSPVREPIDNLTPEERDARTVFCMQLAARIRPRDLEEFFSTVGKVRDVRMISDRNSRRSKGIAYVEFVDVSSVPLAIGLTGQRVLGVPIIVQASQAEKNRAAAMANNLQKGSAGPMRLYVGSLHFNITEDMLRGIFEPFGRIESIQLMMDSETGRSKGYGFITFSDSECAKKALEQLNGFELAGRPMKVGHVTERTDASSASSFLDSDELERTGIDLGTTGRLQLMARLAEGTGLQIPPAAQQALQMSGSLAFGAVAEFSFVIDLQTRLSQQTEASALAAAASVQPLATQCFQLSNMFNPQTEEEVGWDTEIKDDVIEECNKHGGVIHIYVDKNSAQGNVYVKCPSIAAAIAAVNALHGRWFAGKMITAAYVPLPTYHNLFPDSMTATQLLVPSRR

[8] = molecular target: T2, Androgen receptor (Homo sapiens) (UniProt P10275); assay: Antagonist activity at AR in human VCaP cells assessed as upregulation of DHT-suppressed AR-V7 mRNA transcript level at 10 uM preincubated for 24 hrs with DHT followed by wash-out and then incubated with compound for 24 hrs by RT-qPCR analysis; assay type: cell-based
T2 sequence (whole entry): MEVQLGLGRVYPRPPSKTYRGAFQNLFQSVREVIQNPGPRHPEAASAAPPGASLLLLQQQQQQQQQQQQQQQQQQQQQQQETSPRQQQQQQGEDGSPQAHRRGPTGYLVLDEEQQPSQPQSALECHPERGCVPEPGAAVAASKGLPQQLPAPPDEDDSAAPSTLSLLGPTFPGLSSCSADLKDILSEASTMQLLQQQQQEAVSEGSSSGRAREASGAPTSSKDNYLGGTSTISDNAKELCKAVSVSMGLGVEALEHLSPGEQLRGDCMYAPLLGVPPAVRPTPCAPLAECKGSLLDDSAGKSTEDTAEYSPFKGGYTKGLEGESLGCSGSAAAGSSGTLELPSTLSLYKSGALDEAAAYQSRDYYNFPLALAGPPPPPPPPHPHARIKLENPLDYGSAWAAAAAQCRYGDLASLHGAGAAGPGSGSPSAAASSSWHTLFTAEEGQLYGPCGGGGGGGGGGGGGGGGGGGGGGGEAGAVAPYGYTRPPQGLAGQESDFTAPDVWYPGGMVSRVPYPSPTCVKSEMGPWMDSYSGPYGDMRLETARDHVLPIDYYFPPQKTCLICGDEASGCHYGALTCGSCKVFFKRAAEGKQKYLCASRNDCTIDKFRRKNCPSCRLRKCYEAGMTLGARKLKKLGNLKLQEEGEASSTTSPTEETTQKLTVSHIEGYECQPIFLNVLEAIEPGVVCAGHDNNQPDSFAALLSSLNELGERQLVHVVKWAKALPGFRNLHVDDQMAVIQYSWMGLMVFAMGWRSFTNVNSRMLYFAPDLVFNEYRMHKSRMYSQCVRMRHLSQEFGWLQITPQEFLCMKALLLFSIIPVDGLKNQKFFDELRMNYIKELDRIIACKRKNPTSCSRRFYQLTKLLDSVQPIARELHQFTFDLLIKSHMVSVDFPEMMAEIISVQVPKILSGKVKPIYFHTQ

VCaP [9] = assay: Effect on MDV-induced recovery of DHT-suppressed full length AR mRNA expression in human VCaP cells at 10 uM preincubated for 24 hrs with DHT followed by wash-out and then incubated with compound for 24 hrs in presence of AR antagonist , MDV by RT-qPCR analysis; assay type: functional, cell-based
VCaP [10] = assay: Effect on full-length AR mRNA level in human VCaP cells at 10 uM after 24 hrs by RT-qPCR analysis; assay type: functional, cell-based
Mus musculus [11] = assay: Reduction in RBM39 level in tumor lysates of NSG mouse xenografted with human VCaP cells at 10 mg/kg, po administered via gavage with 5 days on and 2 days off dosing schedule for 6 weeks by immunoblot analysis; assay type: functional, organism-based; conditions: Neoplasm
Mus musculus [12] = assay: Reduction in RBM39 level in tumor lysates of NSG mouse xenografted with human VCaP cells at 10 mg/kg, po co-administered with 25 mg/kg AR antagonist MDV via gavage with 5 days on and 2 days off dosing schedule for 6 weeks by immunoblot analysis; assay type: functional, organism-based; conditions: Neoplasm
Mus musculus [13] = assay: Reduction in total AR isoforms in tumor lysates of NSG mouse xenografted with human VCaP cells at 10 mg/kg, po co-administered with 25 mg/kg AR antagonist MDV via gavage with 5 days on and 2 days off dosing schedule for 6 weeks by immunoblot analysis; assay type: functional, organism-based; conditions: Neoplasm
VCaP [14] = assay: Recovery of DHT-suppressed full length AR mRNA expression in human VCaP cells at 10 uM preincubated for 24 hrs with DHT followed by wash-out and then incubated with compound for 24 hrs by RT-qPCR analysis; assay type: functional, cell-based
[15] = molecular target: T1, RNA-binding protein 39 (Homo sapiens); assay: Induction of RBM39 degradation in human VCaP cells assessed as reduction in AR-V7 protein expression preincubated for 24 hrs with DHT followed by wash-out and incubated with compound for 24 hrs in presence of AR antagonist MDV by western blot analysis; assay type: cell-based
[16] = molecular target: T1, RNA-binding protein 39 (Homo sapiens); assay: Induction of RBM39 degradation in human VCaP cells assessed as reduction in RBM39 protein expression preincubated for 24 hrs with DHT followed by wash-out and incubated with compound for 24 hrs in presence of AR antagonist MDV by western blot analysis; assay type: cell-based
[17] = molecular target: T1, RNA-binding protein 39 (Homo sapiens); assay: Induction of RBM39 degradation in human VCaP cells assessed as reduction in RBM39 protein expression at 10 uM preincubated for 24 hrs with DHT followed by wash-out and incubated with compound for 24 hrs in presence of AR antagonist MDV by western blot analysis; assay type: cell-based

For `NS(=O)(=O)c1ccc(S(=O)(=O)Nc2cccc3c(Cl)c[nH]c23)cc1` [INDISULAM], the inhibition (Mus musculus [1]) was “Active”, the inhibition (Mus musculus [2]) was “Active” and the inhibition (Mus musculus [3]) was “Active”. For the same compound, the Activity (VCaP [4]) was 409 mm3, the Activity (VCaP [5]) was 152 mm3 and the Activity (VCaP [6]) was “Active”. For the same compound, the Activity [7] was “Dose-dependent effect”, the Activity [8] was “inactive” and the Activity (VCaP [9]) was “inactive”. For the same compound, the Activity (VCaP [10]) was “inactive”, the inhibition (Mus musculus [11]) was “Active” and the inhibition (Mus musculus [12]) was “inactive”. The inhibition (Mus musculus [13]) was “Active”, the Activity (VCaP [14]) was “Active” and the Activity [15] was “Dose-dependent effect”. The Activity [16] was “Dose-dependent effect” and the Activity [17] was “Active”.
